Assay results: US10342796B2, “Acrylanilide derivative, preparation method, and applications thereof in pharmacy” (Ancureall Pharmaceutical (Shanghai) Co., Ltd., priority 2015, dated 2019)
Read-outs that look alike come from different tables or passages of the source.

What was measured:
Assay in all cases: Growth inhibition GI50 in vitro (CCK8/MTT, 72 h)
H1975 (EGFR L858R/T790M) = type: cell-based, human; conditions: Homo sapiens, NCI-H1975
HCC827 (EGFR dE746-A750) = type: cell-based, human; conditions: Homo sapiens
PC-9 (EGFR dE746-A750) = type: cell-based, human; conditions: Homo sapiens
N87 (HER2 Amp) = type: cell-based, human; conditions: Homo sapiens
AU565 (Her2 amp) = type: cell-based, human; conditions: Homo sapiens
SK-BR-3 (Her2 amp) = type: cell-based, human; conditions: Homo sapiens
Calu-3 (Her2 amp) = type: cell-based; conditions: Homo sapiens
Procedure: Human lung adenocarcinoma cell line Calu-3 (ATCC) was cultured with 1×MEM complete medium (10% FBS, 1% double-antibiotics, 1% NEAA (Gibco), 2 mM glutamine and 1 mM of sodium pyruvate). Human breast cancer cell line SK-BR-3 was cultured with McCOY'S5A complete medium (10% FBS). Human colon cancer cell line SNU1040 (HER2 V777M positive) (ATCC) and human bronchoalveolar adenocarcinoma cell line NCI-H1781 (expressing HER2 exon 20 G776VC mutation) (ATCC) were cultured with 1×RPMI1640 complete medium (10% FBS), respectively.
The suspension cells were collected by centrifugation. The supernatant was discard and the cell pellet was resuspended and counted. Different cell concentrations (5˜10×10^4 cells/mL) were prepared according to the growth cycle of each cell line and then seeded on a 96-well plate (Corning), 100 μL/well. The cells were incubated over night at 37° C., 5% CO2. The compounds were added to the cells on the second day with 2 wells in parallel. The final concentration of organic solvent shall not exceed 1%. The cells were continually incubated for 72 h, and then subjected to MTT assay.
The present compounds and the reference compounds were dissolved with DMSO (Sigma), respectively. […] The storage concentration of compounds was 10 mM and kept at −20° C. They were diluted by 2 times or 10 times with serial dilution before using.
Dojindo CCK8 reagent kit was used as MTT assay. […] FC meter was used as microplate reader.
Adherent cell culture medium was discard and immediately replaced with fresh prepared medium which contains 10% CCK8 reagent (100 μL/well). For the suspension cells, CCK8 was directly added to 10% of the final concentration. The cells were continually incubated for 1˜4 h. When the color of control wells turned to dark yellow, the absorption value was measured at OD450 nm. The cell growth rate was calculated according to the following formula: cell growth rate (%)=100*(T−T0)/(C−T0), T=optical density of drug treatment cell well—optical density of blank control well; T0=optical density of cell well before drug treatment—optical density of blank control well; C=optical density of cell well of solvent control group—optical density of blank control well. […] The experiment was independently repeated 1˜3 times, and subject to biological statistical analysis.

H292 (EGFR WT) = type: cell-based; conditions: Homo sapiens, NCI-H292
[1] = tested on: A431 (EGFR WT, amplification and high expression); type: cell-based, human; conditions: Homo sapiens, A-431
A549 (EGFR WT) = type: cell-based, human; conditions: Homo sapiens
[2] = tested on: H1299 (EGFR wt, Nras Q61K); type: cell-based, human; conditions: Homo sapiens, NCI-H1299
[3] = tested on: H460 (EGFR wt, Kras G61H); type: cell-based, human; conditions: Homo sapiens, NCI-H460
[4] = tested on: PC-9ER (EGFR delE746-A750/T790M); type: cell-based, human; conditions: Homo sapiens, PC-9/ER; EGFR mutant cell line; range of GI50; read-out: GI50 PC9ER
[5] = H1975, EGFR L858R/T790M, read-out: GI50
[6] = Table 15, 1000 nM to 0.03 nM serial dilution, read-out: GI50 H1975 (EGFR L858R/T790M)
[7] = HCC827, EGFR dE746-A750, read-out: GI50
[8] = PC-9, EGFR dE746-A750, read-out: GI50
[9] = Table 15, 1000 nM to 0.03 nM serial dilution, read-out: GI50 PC-9 (EGFR dE746-A750)
[10] = N87, EGFR wt, Her2 amp, read-out: GI50
[11] = Table 16, 1000 nM to 0.03 nM serial dilution, read-out: GI50 N87 (HER2 amp)
[12] = AU565, EGFR wt, Her2 amp, read-out: GI50
[13] = Calu-3, Table 16, 1000 nM to 0.03 nM serial dilution, read-out: GI50 Calu3 (HER2 amp)
[14] = Calu-3, EGFR wt, Her2 amp, read-out: GI50
[15] = Table 15, 1000 nM to 0.03 nM serial dilution, read-out: GI50 H292 (EGFR WT)
[16] = A549, Table 15, 1000 nM to 0.03 nM serial dilution, read-out: GI50 A549 (EGFR WT)
[17] = EGFR mutant cell line, range of GI50, read-out: GI50 H1975
[18] = HCC827, EGFR mutant cell line, range of GI50, read-out: GI50 HCC827
[19] = EGFR mutant cell line, range of GI50, read-out: GI50 PC-9
[20] = HER2 positive cell line, range of GI50, read-out: GI50 N87
[21] = AU565, HER2 positive cell line, range of GI50, read-out: GI50 AU-565
[22] = SK-BR-3, HER2 positive cell line, range of GI50, read-out: GI50 SK-BR-3
[23] = EGFR wild type cell line, range of GI50, read-out: GI50 A431

GI50 (H1975 (EGFR L858R/T790M); [17]) [nM]	GI50 (HCC827 (EGFR dE746-A750); [18]) [nM]	GI50 (PC-9 (EGFR dE746-A750); [19]) [nM]	GI50 [4] [nM]	SMILES	GI50 (H1975 (EGFR L858R/T790M); [5]) [nM]	GI50 (H1975 (EGFR L858R/T790M); [6]) [nM]	GI50 (HCC827 (EGFR dE746-A750); [7]) [nM]	GI50 (PC-9 (EGFR dE746-A750); [8]) [nM]	GI50 (PC-9 (EGFR dE746-A750); [9]) [nM]	GI50 (N87 (HER2 Amp); [10]) [nM]	GI50 (N87 (HER2 Amp); [11]) [nM]	GI50 (AU565 (Her2 amp); [12]) [nM]	GI50 (Calu-3 (Her2 amp); [13]) [nM]	GI50 (Calu-3 (Her2 amp); [14]) [nM]	GI50 (H292 (EGFR WT); H292, EGFR wt, read-out: GI50) [nM]	GI50 (H292 (EGFR WT); [15]) [nM]	GI50 ([1]; A431, EGFR wt, read-out: GI50) [nM]	GI50 (A549 (EGFR WT); [16]) [nM]	GI50 (N87 (HER2 Amp); [20]) [nM]	GI50 (AU565 (Her2 amp); [21]) [nM]	further results
–	–	–	–	C=CC(=O)Nc1cc(Nc2nccc(-c3cn(C)c4ccccc34)n2)c(OC)cc1N(C)CCN(C)C [AZD9291, reference compound]	15.6	15.6	15.6	13.9	13.9	234	219	312	657	686	> 1000	> 1000	[…]	> 1000	–	–	GI50 (SK-BR-3 (Her2 amp); SK-BR-3): 643 nM; GI50 (A549 (EGFR WT); A549, EGFR wt, Kras G12S, read-out: GI50): > 1000 nM; GI50 ([2]; H1299, EGFR wt, Nras Q61K, read-out: GI50): > 1000 nM; GI50 ([3]; H460, EGFR wt, Kras G61H, read-out: GI50): > 1000 nM
< 10	< 10	< 10	< 10	C=CC(=O)Nc1cc(Nc2ncnc(Nc3cccc(Br)c3)n2)c(OC)cc1N1CCC(N2CCCC2)CC1 [Compound 118]	9.4	–	2.3	2.38	–	4.8	–	4.8	–	14.6	> 1000	–	156	–	< 10	< 10	GI50 (SK-BR-3 (Her2 amp); [22]): 10 to 100 nM; GI50 (SK-BR-3 (Her2 amp); SK-BR-3, EGFR wt, Her2 amp, read-out: GI50): 29.2 nM; GI50 [1, 23]: 100 to 1000 nM
< 10	< 10	< 10	< 10	C=CC(=O)Nc1cc(Nc2cc(-c3cn(C(C)C)c4ccc(F)cc34)ncn2)c(OC)cc1N(C)CCN(C)C [Compound 191, N-(5-(6-(5-fluoro-1-isopropyl-1H-indol-3-yl)-pyrimidin-4-ylamino)-4-methoxyl-2-((2-dimethylamino-ethyl)-methyl-amino)-phenyl)-acrylamide]	–	–	–	–	–	–	–	–	–	–	–	–	–	–	< 10	10 to 100	GI50 (SK-BR-3 (Her2 amp); [22]): < 10 nM; GI50 [1, 23]: 100 to 1000 nM; GI50 (A549 (EGFR WT); A549, EGFR wild type cell line, range of GI50, read-out: GI50 A549): > 1000 nM; GI50 ([2]; EGFR wild type cell line, range of GI50, read-out: GI50 H1299): > 1000 nM; GI50 ([3]; EGFR wild type cell line, range of GI50, read-out: GI50 H460): > 1000 nM
–	–	–	–	C=CC(=O)Nc1cc(Nc2cc(Nc3cc(F)c(OC)c(Cl)c3)ncn2)c(OC)cc1N(C)CCN(C)C [Compound 236, N-(5-(6-(3-chloro-5-fluoro-4-methoxyphenylamino)-pyrimidin-4-yl-amino)-2-((2-dimethylamino-ethyl)-methyl-amino)-4-methoxyl-phenyl)-acrylamide]	–	3.88	–	–	1.49	–	0.82	–	1.46	–	–	> 1000	–	> 1000	–	–	GI50 (H1975 (EGFR L858R/T790M); Table 13, 72 h, read-out: Range of GI50 H1975 (EGFR L858R/T790M)): < 10 nM; GI50 (PC-9 (EGFR dE746-A750); Table 13, 72 h, read-out: Range of GI50 PC-9 (EGFR dE746-A750)): < 10 nM; GI50 (N87 (HER2 Amp); Table 13, 72 h, read-out: Range of GI50 N87 (HER2 Amp)): < 10 nM; GI50 (A549 (EGFR WT); A549, Table 13, 72 h, read-out: Range of GI50 A549 (EGFR WT)): > 1000 nM
